# Test results as given in publication PMC9629815, “MK256 is a novel CDK8 inhibitor with potent antitumor activity in AML through downregulation of the STAT pathway” (Oncotarget, 2022).
# How the values were obtained:
# CDK19/cyclin C = CDK19/cyclin C (Homo sapiens, UniProt Q9BWU1); assay: SelectScreen kinase profiling, IC50; format: biochemical; settings: read-out: IC50 against CDK19/cyclin C
# From the text: (§1) MK256 was synthesized in house. The kinase profiling of MK256 against various targets was done using the SelectScreen Kinase Profiling Services provided by ThermoFisher Scientific (Walham WA, USA). https://www.thermofisher.com/us/en/home/products-and-services/services/custom-services/screening-and-profiling-services/selectscreen-profiling-service/selectscreen-kinase-profiling-service.html.
# CDK8/cyclin C = CDK8/cyclin C (Homo sapiens, UniProt P49336); assay: SelectScreen kinase profiling, IC50; format: biochemical; settings: read-out: IC50 against CDK8/cyclin C
# Chain of CDK8/cyclin C (P49336 whole entry): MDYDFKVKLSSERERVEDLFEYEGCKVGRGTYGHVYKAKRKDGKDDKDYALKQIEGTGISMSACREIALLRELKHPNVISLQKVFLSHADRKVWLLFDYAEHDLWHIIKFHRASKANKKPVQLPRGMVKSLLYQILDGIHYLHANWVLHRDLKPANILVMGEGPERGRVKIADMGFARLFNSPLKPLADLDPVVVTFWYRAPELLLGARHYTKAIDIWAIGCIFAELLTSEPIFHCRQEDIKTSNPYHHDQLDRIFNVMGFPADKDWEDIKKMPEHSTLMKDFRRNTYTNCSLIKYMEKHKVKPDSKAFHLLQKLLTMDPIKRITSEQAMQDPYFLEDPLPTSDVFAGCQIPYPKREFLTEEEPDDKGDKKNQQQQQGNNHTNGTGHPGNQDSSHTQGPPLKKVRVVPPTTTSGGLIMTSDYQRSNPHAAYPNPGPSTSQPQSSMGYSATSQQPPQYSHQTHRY
# Chain of CDK8/cyclin C (P24863 whole entry partner): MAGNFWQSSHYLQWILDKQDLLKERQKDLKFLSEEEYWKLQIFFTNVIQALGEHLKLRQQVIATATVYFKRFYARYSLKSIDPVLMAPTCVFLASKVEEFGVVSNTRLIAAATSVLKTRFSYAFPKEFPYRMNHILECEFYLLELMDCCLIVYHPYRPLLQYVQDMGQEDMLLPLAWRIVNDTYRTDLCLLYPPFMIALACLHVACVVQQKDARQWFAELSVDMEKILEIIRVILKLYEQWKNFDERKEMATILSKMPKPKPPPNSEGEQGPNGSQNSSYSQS
# From the text: as §1
# CDK9 = CDK9 (Homo sapiens, UniProt P50750); assay: SelectScreen kinase profiling, IC50; format: biochemical
# Chain of CDK9 (P50750 whole entry): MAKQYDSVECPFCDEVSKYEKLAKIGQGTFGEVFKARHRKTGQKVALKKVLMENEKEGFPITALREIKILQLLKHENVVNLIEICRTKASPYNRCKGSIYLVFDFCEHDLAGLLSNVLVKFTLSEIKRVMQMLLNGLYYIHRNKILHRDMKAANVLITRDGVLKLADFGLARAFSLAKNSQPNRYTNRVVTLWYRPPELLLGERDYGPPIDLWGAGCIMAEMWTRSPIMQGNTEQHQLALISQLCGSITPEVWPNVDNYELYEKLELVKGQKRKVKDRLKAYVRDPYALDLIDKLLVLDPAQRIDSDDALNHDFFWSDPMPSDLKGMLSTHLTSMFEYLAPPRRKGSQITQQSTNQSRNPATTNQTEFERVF
# Chain of CDK9 (O60563 whole entry partner): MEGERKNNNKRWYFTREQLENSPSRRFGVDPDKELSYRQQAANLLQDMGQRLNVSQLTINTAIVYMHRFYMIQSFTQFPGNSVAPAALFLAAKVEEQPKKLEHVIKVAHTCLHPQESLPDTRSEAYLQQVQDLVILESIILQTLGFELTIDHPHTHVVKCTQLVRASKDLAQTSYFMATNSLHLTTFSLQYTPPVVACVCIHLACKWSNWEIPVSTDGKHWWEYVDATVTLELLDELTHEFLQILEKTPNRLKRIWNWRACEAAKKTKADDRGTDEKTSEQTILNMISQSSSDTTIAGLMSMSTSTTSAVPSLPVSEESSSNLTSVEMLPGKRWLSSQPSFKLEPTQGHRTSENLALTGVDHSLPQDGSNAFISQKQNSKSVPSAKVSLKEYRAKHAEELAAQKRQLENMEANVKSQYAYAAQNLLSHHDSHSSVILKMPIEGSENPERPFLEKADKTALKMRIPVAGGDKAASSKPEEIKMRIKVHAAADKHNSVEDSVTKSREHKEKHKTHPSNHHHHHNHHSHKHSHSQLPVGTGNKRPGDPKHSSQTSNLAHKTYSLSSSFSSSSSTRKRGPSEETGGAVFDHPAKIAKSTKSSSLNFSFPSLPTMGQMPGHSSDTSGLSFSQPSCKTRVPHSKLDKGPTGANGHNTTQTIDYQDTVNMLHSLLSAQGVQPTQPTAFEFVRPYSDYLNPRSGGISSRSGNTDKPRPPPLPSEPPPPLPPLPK
# From the text: as §1
# [1] = system: p-STATs and MCL-1 in MV-4-11 cells; assay: Western blot of STAT pathway in MV-4-11 cells; format: cell-based; settings: 48 hrs
# Procedure: (§2) For the in vitro western blot study, MV-4-11 and MOLM-14 cells were plated (6-well) at 5 × 10^5 cells per well with medium containing 1% FBS overnight. MK-256 was added in different concentrations at different time points. […] Total protein concentration was measured using the Pierce BCA protein Assay Kit (23227, Thermo Fisher Scientific). Proteins were separated on SDS-PAGE and transferred to Nitrocellulose membrane.
# [2] = system: p-STATs, MCL-1, BCL-2, cleaved Parp, cleaved Caspase 3 in MOLM-14 cells; assay: Western blot of STAT pathway and apoptosis markers in MOLM-14 cells; format: cell-based; design: targeted p-STATs and MCL-1 levels / expression of BCL-2: dose or concentration left out as unconfirmed
# Procedure: as §2
# CCL2 mRNA in KG-1 cells = assay: Real-time RT-PCR of CCL2 mRNA; format: cell-based
# Procedure: (§3) Total RNA from the various cell lines was isolated using the RNeasy extraction method (Qiagen, Valencia, CA, USA). First-strand cDNA was synthesized from total RNA by iScript cDNA synthesis (Bio-Rad, Hercules, CA, USA) according to the manufacturer’s instructions. Taqman RT–PCR analysis was performed on cDNA in a 384-well plate, using a Prism 7900HT Real-Time PCR System (Applied Biosystems, Foster City, CA, USA). Primers and Taqman probes were purchased from Applied Biosystems. The expression of target genes MCL1 (Hs03043899_m1, Thermo fisher) and CCL2 (Hs00234140_m1, Thermo fisher) in each sample was assayed in triplicate and normalized to human GUSB for mRNA expression analysis. An unpaired t test was used to calculate statistical significance.
# [3] = system: CCL2 mRNA in MOLM-14 cells; assay: Real-time RT-PCR of CCL2 mRNA; format: cell-based
# Procedure: as §3
# CYP2C19 = CYP2C19 (Homo sapiens, UniProt P33261); assay: Cytochrome P450 inhibition assay; format: in vitro ADME; settings: 50 uM
# Chain of CYP2C19 (P33261 whole entry): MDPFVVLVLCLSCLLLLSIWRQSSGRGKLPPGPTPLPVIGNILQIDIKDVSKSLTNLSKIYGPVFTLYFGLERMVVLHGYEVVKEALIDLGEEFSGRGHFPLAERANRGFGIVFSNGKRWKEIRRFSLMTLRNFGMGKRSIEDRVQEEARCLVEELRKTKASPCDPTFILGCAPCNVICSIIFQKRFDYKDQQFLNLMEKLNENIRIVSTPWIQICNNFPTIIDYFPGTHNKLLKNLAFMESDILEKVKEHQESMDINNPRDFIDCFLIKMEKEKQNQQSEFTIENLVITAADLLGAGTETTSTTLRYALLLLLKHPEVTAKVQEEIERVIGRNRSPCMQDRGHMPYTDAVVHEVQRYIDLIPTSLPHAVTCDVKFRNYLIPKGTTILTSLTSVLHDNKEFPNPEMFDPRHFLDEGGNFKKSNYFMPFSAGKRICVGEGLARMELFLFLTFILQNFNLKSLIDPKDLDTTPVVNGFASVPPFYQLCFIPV
# In vivo mouse PK study = assay: In vivo mouse PK study; design: species or system mice; settings: plasma
# Procedure: Mice were dosed with either 1 mg/ml (IV) at a dose of 3 mg/kg or 3 mg/ml (PO) at a dose of 30 mg/kg in 40% PEG400 + 60% (30% Solutol) (final pH ~ 7). Blood samples were drawn at 5 mins, 15 mins, 30 mins, 1 hr, 2 hrs, 4 hrs, 8 hrs, and 24 hs from mice dosed with the IV route and at 1 hr, 4 hrs, 8 hrs and 24 hrs from mice dosed orally. An aliquot of 30 μL of plasma was extracted with 100 μL of 5:95 methanol:acetonitrile containing internal standard (Verapamil). The mixture was vortexed on a shaker for 15 minutes and subsequently centrifuged at 4000 rpm for 15 minutes. An aliquot of 70 μL of the supernatant was mixed with 70 μL water with 0.1% formic acid for the injection to the LC/MS/MS. Calibration standards were prepared by spiking MK256 into the blank mouse plasma. All samples are analyzed on LC/MS/MS using an AB Sciex API 4000 instrument, coupled to a Shimadzu LC-20AD LC Pump system.
# [4] = Histological analysis (H&E) of major organs after 21 days treatment; format: in vivo, mice; settings: 100 mg/kg, q.d., oral
# Procedure: To evaluate the behavior of MK256 in vivo we did a full pharmacokinetics (PK) analysis of MK256 in mice. […] In the MOLM-14 xenograft model, we treated mice with 10 mg/kg, 50 mg/kg and 100 mg/kg of MK256 for 6 hrs, after which tumors from each treatment group were harvested and processed for western blotting analysis. […] We also performed a histological analysis of the major organs (bone, brain, heart, intestine, kidney, liver and lung) of mice after they were treated with 100 mg/kg of MK256 for 21 days (q.d, oral) (Figure 8). […] In summary, MK256 offered a desirable solubility, permeability, hepatocyte stability, toxicology, and pharmacokinetics/pharmacodynamics (PK/PD) profile.
# Figure 8 Evaluation of the toxicity of MK256 in vivo. Histological data (H&E staining) obtained in the major organs (bone, brain, heart, intestine, kidney, liver, and lung) of the mice treated with MK256 (100 mg/kg, q.d., oral) for 21 days.
# [5] = IV 3 mg/kg or PO 30 mg/kg study, footnote 2 not given
# Chain of CDK19/cyclin C (Q9BWU1 whole entry): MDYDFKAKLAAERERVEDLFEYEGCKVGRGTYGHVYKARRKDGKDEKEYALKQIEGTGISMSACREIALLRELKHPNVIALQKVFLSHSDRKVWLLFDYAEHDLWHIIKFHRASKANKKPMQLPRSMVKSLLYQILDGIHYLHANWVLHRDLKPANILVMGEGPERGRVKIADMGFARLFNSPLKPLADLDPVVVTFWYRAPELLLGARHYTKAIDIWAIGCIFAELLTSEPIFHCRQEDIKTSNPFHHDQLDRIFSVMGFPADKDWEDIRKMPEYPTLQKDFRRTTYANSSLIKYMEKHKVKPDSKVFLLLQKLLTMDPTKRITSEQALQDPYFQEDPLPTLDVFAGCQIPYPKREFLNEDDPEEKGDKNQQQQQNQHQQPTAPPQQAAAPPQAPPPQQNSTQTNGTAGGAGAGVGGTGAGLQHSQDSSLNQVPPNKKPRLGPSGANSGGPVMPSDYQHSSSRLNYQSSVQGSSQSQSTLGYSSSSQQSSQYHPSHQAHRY
# Chain of CDK19/cyclin C (P24863 whole entry partner): as the sequence (P24863 whole entry partner) above
structure (smiles),measurement,setting,value
Nc1nccc2c(Br)cc3cc(C(=O)O)ccc3c12 [MK256],IC50,CDK19/cyclin C,3.3 nM
same,IC50,CDK8/cyclin C,2.5 nM
same,fold reduction of activity against CDK9 in comparison to CDK8,CDK9; CDK9 IC50 vs CDK8 IC50,approximately 40 fold
same,IC50,CDK9; read-out: IC50 against CDK9,105 nM
same,"expression levels of p-STAT1 (S727), p-STAT3(S727), p-STAT5(S726)",[1]; 30 nM to 1 uM,trend of reduction
same,expression of MCL-1,"[1]; 30 nM to 1 uM, dose-dependent",reduced expression
same,"expression level of MCL-1, p-STAT3(S727) and p-STAT5(S726)",[1]; 1 uM,remained at minimal levels
same,expression level of p-STAT1(S727),[1]; 1 uM,abrogated completely
same,expression levels of p-STAT1(Y701) and p-STAT5(Y694),[1]; high concentrations,unaffected
same,levels of cleaved Parp and cleaved Caspase 3,"[2]; 30 nM to 3 mM, 48 hr",dose-dependent upregulation
same,"p-levels of STATs, time course","[2]; 300 nM, 4 hrs and 24 hrs",further downregulated in a time-dependent manner
same,"p-STAT1 (S727), p-STAT3(S727), p-STAT5(S726) levels","[2]; 2-hrs, various concentrations",dose-dependent inhibitions
same,MCL-1 level,[2]; 2 hrs,downregulated
same,expression of BCL-2,[2]; 48 hr,unexpected upregulation
same,targeted p-STATs and MCL-1 levels,[2]; 48 hr,dose-dependent inhibition
same,expression of CCL2 downregulated to,CCL2 mRNA in KG-1 cells; 300 nM,approximately 50%
same,expression of CCL2 downregulated to,CCL2 mRNA in KG-1 cells; 1 uM,~40%
same,mRNA level of CCL2,[3]; 1 uM,abolished
same,mrna remaining at 0.3 µM,"[3]; Homo sapiens, MOLM-14, 300 nM, read-out: mRNA level of CCL2 (remaining)",~5%
same,cytochrome P450 inhibition,CYP2C19,no inhibition
same,AUC(0-t),In vivo mouse PK study; [5],330 µM·h
same,Cmax,In vivo mouse PK study; [5],29 µM
same,half-life,In vivo mouse PK study; [5],3.6 h
same,bioavailability,In vivo mouse PK study; PO 30 mg/kg vs IV 3 mg/kg,59%
same,clearance,"In vivo mouse PK study; intravenous, 3 mg/kg",2.83 mL/min/kg
same,Vd,"In vivo mouse PK study; intravenous, 3 mg/kg, read-out: Vss",0.49 L/kg
same,"histology of major organs (bone, brain, heart, intestine, kidney, liver and lung)",[4],did not cause visible pathological changes
